{"source": "patent US11154551B2", "about": "“HDAC1,2 inhibitors and methods of using the same” (UNIVERSITY OF UTAH RESEARCH FOUNDATION, priority 2014, dated 2021)", "assay_type_in_all_cases": "cell-based, human", "key": {"[1]": {"system": "Karpas-422 and SUDHL4 cells", "assay": "Western blot of chromatin extracts for H3K27ac and H3K27me3", "procedure": "Western blot analysis was done with anti-H3K27ac, H3K27me3 or EZH2 and histone H3 served as a loading control.\nFollowing DMSO or ACY-957 treatment, cells were exposed to a 5Gy dose of ionizing radiation and allowed to recover for 30 minutes prior to chromatin extraction. Western blots were performed with anti-H3K27ac or anti-H3K27me3 with histone H3 serving as a loading control. (B-E): Karpas-422, SUDHL4, WSU-DLCL2 and HeLa cells were laser micro-irradiated and allowed to recover for 15 minutes before fixation and immunofluorescence staining with anti-γH2AX and anti-H3K27me3. Subsequently, the percentage of cells with H3K27me3 lines that co-localized with γH2AX were counted. Merge is the overlay of γH2AX and H3K27me3 pictures. (F-I): At least 100 cells with γH2AX lines were counted in each experiment. The quantitation shown was the average calculated from independent experiments+/−standard error. Quantitation from five, seven, five and six independent experiments performed in Karpas-422, SUDHL4, WSU-DLCL2 and HeLa cells, respectively, was used in the graph shown in this figure. (J): Karpas-422 cells were micro-irradiated with a laser and allowed to recover for 15 minutes before fixation and immunofluorescence staining was performed with anti-γH2AX and anti-H3K27ac.\nProtein Preparation and Western Blot Analysis.\nThe histone H3K27 residue was subjected to reversible acetylation and methylation. […] We also treated cells with the second EZH2 inhibitor, GSK126 alone, or combined with ACY-957 (ACY-957+GSK126). […] Cells were treated for 48 h prior to preparing chromatin extracts for Western analysis using antibodies recognizing H3K27ac or H3K27me3.\nWe first examined whether inhibiting HDAC1,2 activity induced any change in global H3K27ac or H3K27me3 on chromatin following DNA damage and during DNA repair. SUDHL4 or Karpas-422 cells with or without exposure to ionizing radiation (IR) were initially treated with DMSO or ACY-957 for 48 hr. Chromatin extracts were prepared from these cells following a 30 min recovery period (the repair phase) and changes in histone modifications were examined by Western blotting."}, "[2]": {"system": "SUDHL4 and Karpas-422 cells", "assay": "γH2AX foci formation by immunofluorescence", "procedure": "(§1) The percentage of cells with 6 or greater γH2AX foci were counted in three independent experiments and at least 100 cells were counted in each experiment. […] Histones were purified using trichloroacetic acid extraction protocol (see Example 1). Western blot analysis was done with anti-γH2AX and histone H2AX served as the loading control. […] Following DMSO or ACY957 treatment, cells were exposed to a 5Gy dose of ionizing radiation and allowed to recover for 30 minutes prior to chromatin extraction. Western blot analysis was done with anti-γH2AX where total histone H2AX served as a loading control. (D): Karpas-422 cells were micro-irradiated with laser and allowed to recover for 15 minutes before fixation and immunofluorescence staining with anti-γH2AX, anti-HDAC1 and anti-HDAC2 antibodies was done.\nImmunofluorescence. Cells were fixed in either 10% formalin or methanol-acetone (1:1) for 10 min at −20*C. The cells were then permeabilized with 0.5% Triton-X-100 in PBS for 5 min at room temperature (RT), blocked in 10% normal goat serum (Sigma) for 30 min and stained with primary antibody for 1 h at RT. Cells were incubated with secondary antibody (anti-mouse or anti-rabbit IgG, Alexa Fluor 488/546) at a 1:600 dilution for 45 min at RT, and counterstained with Hoechst 33342 (Sigma) at 1:1000 dilution to visualize the nuclei. Images were captured using Zeiss Axioskop mot plus microscope with a 40× lens and analyzed using the AxioVision software."}, "[3]": {"system": "SUDHL4 and Karpas-422 cells", "assay": "Western blot of γH2AX on chromatin, with or without ionizing radiation", "procedure": "as §1"}}}
{"smiles": "Nc1ccc(-c2cccs2)cc1NC(=O)c1ccc2nc(N3CCNCC3)ccc2c1", "note": "[ACY-957, N-(2-amino-5-(thiophen-2-yl)phenyl)-2-(piperazin-1-yl)quinoline-6-carboxamide]", "values": [{"measurement": "global H3K27ac levels", "setting": "[1]; 48 h, chromatin extracts", "result": "robust increase in global H3K27ac levels"}, {"measurement": "global H3K27me3 levels", "setting": "[1]; 48 h, chromatin extracts", "result": "remained unchanged"}, {"measurement": "global H3K27me3 levels on chromatin", "setting": "[1]; 48 hr, 30 min recovery from IR", "result": "concomitant decrease in global H3K27me3 levels on chromatin was not observed"}, {"measurement": "global H3K27ac levels on chromatin", "setting": "[1]; 48 hr, with or without exposure to IR", "result": "increased"}, {"measurement": "cells with γH2AX foci", "setting": "[2]; 48 h, 2 μM ACY-957, 0.5 μM DZNEP, 0.5 μM GSK126", "result": "significant increase in the number of cells with greater than six γH2AX foci"}, {"measurement": "γH2AX foci by immunofluorescence", "setting": "[2]; EZH2GOF DLBCL cells", "result": "increase in γH2AX"}, {"measurement": "chromatin associated γH2AX", "setting": "[3]; 48 hr, Western", "result": "increase in chromatin associated γH2AX"}, {"measurement": "γH2AX levels on chromatin after ionizing radiation", "setting": "[3]; 48 h treatment, 5Gy, 30 min recovery", "result": "Increased γH2AX levels on chromatin"}]}
